Laboratory results reported in ChEMBL document CHEMBL4308841, “Synthesis, in vitro antiproliferative activity, and kinase inhibitory effects of pyrazole-containing diarylureas and diarylamides” (Eur J Med Chem, 2018).

Legend:
MDA-MB-435 = test: Growth inhibition of human MDA-MB-435 cells assessed as cell growth at 1 uM incubated for 48 hrs by sulforhodamine B assay relative to control; format: functional; details: MDA-MB-435, 48 h, read-out: Activity
SF-295 = test: Growth inhibition of human SF295 cells assessed as cell growth at 0.01 uM incubated for 48 hrs by sulforhodamine B assay relative to control; format: functional; details: SF-295, 48 h, read-out: Activity
NCI-H522 [1] = test: Growth inhibition of human NCI-H522 cells incubated for 48 hrs by sulforhodamine B assay; format: functional, cell-based; details: NCI-H522, 48 h
ACHN [2] = test: Growth inhibition of human ACHN cells assessed as cell growth at 100 uM incubated for 48 hrs by sulforhodamine B assay relative to control; format: functional; details: read-out: Activity
SNB-75 [3] = test: Growth inhibition of human SNB75 cells assessed as cell growth at 100 uM incubated for 48 hrs by sulforhodamine B assay relative to control; format: functional; details: SNB-75, 48 h, read-out: Activity
NCI/ADR-RES = test: Growth inhibition of human NCI/ADR-RES cells assessed as cell growth at 0.01 uM incubated for 48 hrs by sulforhodamine B assay relative to control; format: functional; details: read-out: Activity
SNB-19 = test: Growth inhibition of human SNB19 cells assessed as cell growth at 1 uM incubated for 48 hrs by sulforhodamine B assay relative to control; format: functional; details: SNB-19, 48 h, read-out: Activity
SN12C = test: Growth inhibition of human SN12C cells assessed as cell growth at 0.01 uM incubated for 48 hrs by sulforhodamine B assay relative to control; format: functional; details: read-out: Activity
NCI-H522 [4] = test: Growth inhibition of human NCI-H522 cells assessed as cell growth at 10 uM incubated for 48 hrs by sulforhodamine B assay relative to control; format: functional; details: NCI-H522, 48 h, read-out: Activity
OVCAR-5 = test: Growth inhibition of human OVCAR5 cells assessed as cell growth at 0.1 uM incubated for 48 hrs by sulforhodamine B assay relative to control; format: functional; details: OVCAR-5, 48 h, read-out: Activity
RPMI-8226 [5] = test: Growth inhibition of human RPMI8226 cells assessed as cell growth at 100 uM incubated for 48 hrs by sulforhodamine B assay relative to control; format: functional; details: RPMI-8226, 48 h, read-out: Activity
SK-MEL-5 = test: Growth inhibition of human SK-MEL-5 cells incubated for 48 hrs by sulforhodamine B assay; format: functional, cell-based; details: SK-MEL-5, 48 h
ACHN [6] = test: Growth inhibition of human ACHN cells incubated for 48 hrs by sulforhodamine B assay; format: functional, cell-based
UACC-257 = test: Growth inhibition of human UACC257 cells assessed as cell growth at 0.1 uM incubated for 48 hrs by sulforhodamine B assay relative to control; format: functional; details: UACC-257, 48 h, read-out: Activity
RPMI-8226 [7] = test: Growth inhibition of human RPMI8226 cells incubated for 48 hrs by sulforhodamine B assay; format: functional, cell-based; details: RPMI-8226, 48 h
LOX IMVI = test: Growth inhibition of human LOXIMVI cells incubated for 48 hrs by sulforhodamine B assay; format: functional
IGROV-1 = test: Growth inhibition of human IGROV1 cells assessed as cell growth at 0.1 uM incubated for 48 hrs by sulforhodamine B assay relative to control; format: functional; details: IGROV-1, 48 h, read-out: Activity
SNB-75 [8] = test: Growth inhibition of human SNB75 cells assessed as cell growth at 0.01 uM incubated for 48 hrs by sulforhodamine B assay relative to control; format: functional; details: SNB-75, 48 h, read-out: Activity
OVCAR-3 = test: Growth inhibition of human OVCAR3 cells assessed as cell growth at 0.1 uM incubated for 48 hrs by sulforhodamine B assay relative to control; format: functional; details: OVCAR-3, 48 h, read-out: Activity
SK-OV-3 = test: Growth inhibition of human SKOV3 cells assessed as cell growth at 0.01 uM incubated for 48 hrs by sulforhodamine B assay relative to control; format: functional; details: SK-OV-3, 48 h, read-out: Activity
NCI-H23 = test: Growth inhibition of human NCI-H23 cells assessed as cell growth at 0.01 uM incubated for 48 hrs by sulforhodamine B assay relative to control; format: functional; details: NCI-H23, 48 h, read-out: Activity
SR = test: Growth inhibition of human SR cells incubated for 48 hrs by sulforhodamine B assay; format: functional, cell-based
K562 = test: Growth inhibition of human K562 cells assessed as cell growth at 0.01 uM incubated for 48 hrs by sulforhodamine B assay relative to control; format: functional; details: K562, 48 h, read-out: Activity
U-251 = test: Growth inhibition of human U251 cells incubated for 48 hrs by sulforhodamine B assay; format: functional, cell-based; details: U-251, 48 h
SW-620 = test: Growth inhibition of human SW620 cells assessed as cell growth at 0.1 uM incubated for 48 hrs by sulforhodamine B assay relative to control; format: functional; details: SW-620, 48 h, read-out: Activity
SK-MEL-2 = test: Growth inhibition of human SK-MEL-2 cells assessed as cell growth at 0.1 uM incubated for 48 hrs by sulforhodamine B assay relative to control; format: functional; details: SK-MEL-2, 48 h, read-out: Activity
DU-145 = test: Growth inhibition of human DU145 cells assessed as cell growth at 1 uM incubated for 48 hrs by sulforhodamine B assay relative to control; format: functional; details: DU-145, 48 h, read-out: Activity
A549 = test: Growth inhibition of human A549/ATCC cells assessed as cell growth at 0.01 uM incubated for 48 hrs by sulforhodamine B assay relative to control; format: functional; details: A549, 48 h, read-out: Activity
[9] = read-out: LC50 (the source's name)
[10] = read-out: pLC50 (the source's name) (converted)

O=C(Nc1cccc(-n2cc(-c3ccncc3)c(-c3cc(O)cc(Cl)c3)n2)c1)Nc1ccc(Cl)c(C(F)(F)F)c1
growth at 1 µM (MDA-MB-435): 57% | growth at 0.01 µM (SF-295): 58% | GI50 (NCI-H522 [1]; read-out: GI50): 1.32 µM | CC50 (NCI-H522 [1]; [9]): 19 µM | TGI (NCI-H522 [1]; read-out: TGI): 44.8 µM | GI50 (NCI-H522 [1]; read-out: pGI50 (converted)): 1.32 µM | CC50 (NCI-H522 [1]; [10]): 19.1 µM | TGI (NCI-H522 [1]; read-out: pTGI (converted)): 4.47 µM | growth at 100 µM (ACHN [2]): -25% | growth at 100 µM (SNB-75 [3]): -41% | growth at 0.01 µM (NCI/ADR-RES): 96% | growth at 1 µM (SNB-19): 104% | growth at 0.01 µM (SN12C): 102% | growth at 10 µM (NCI-H522 [4]): -16% | growth at 0.1 µM (OVCAR-5): 91% | growth at 100 µM (RPMI-8226 [5]): -30% | GI50 (SK-MEL-5; read-out: GI50): 1.59 µM | CC50 (SK-MEL-5; [9]): 51.5 µM | TGI (SK-MEL-5; read-out: TGI): 32.3 µM | GI50 (SK-MEL-5; read-out: pGI50 (converted)): 1.7 µM | CC50 (SK-MEL-5; [10]): 6.17 µM | TGI (SK-MEL-5; read-out: pTGI (converted)): 3.24 µM | GI50 (ACHN [6]; read-out: GI50): 3.1 µM | CC50 (ACHN [6]; [9]): > 100 µM | TGI (ACHN [6]; read-out: TGI): 15.3 µM | GI50 (ACHN [6]; read-out: pGI50 (converted)): 3.09 µM | CC50 (ACHN [6]; [10]): > 100 µM | TGI (ACHN [6]; read-out: pTGI (converted)): 15.1 µM | growth at 0.1 µM (UACC-257): 91% | IC50 (RPMI-8226 [7]): 1.95 µM | GI50 (RPMI-8226 [7]; read-out: GI50): 1.96 µM | CC50 (RPMI-8226 [7]; [9]): > 100 µM | TGI (RPMI-8226 [7]; read-out: TGI): 50 µM | GI50 (RPMI-8226 [7]; read-out: pGI50 (converted)): 1.95 µM | CC50 (RPMI-8226 [7]; [10]): > 100 µM | TGI (RPMI-8226 [7]; read-out: pTGI (converted)): 5.13 µM | GI50 (LOX IMVI; read-out: GI50): 1.97 µM | CC50 (LOX IMVI; [9]): 95.5 µM | TGI (LOX IMVI; read-out: TGI): 43.6 µM | GI50 (LOX IMVI; read-out: pGI50 (converted)): 1.95 µM | CC50 (LOX IMVI; [10]): 9.55 µM | TGI (LOX IMVI; read-out: pTGI (converted)): 4.37 µM | growth at 0.1 µM (IGROV-1): 98% | growth at 0.01 µM (SNB-75 [8]): 53% | growth at 0.1 µM (OVCAR-3): 95% | growth at 0.01 µM (SK-OV-3): 108% | growth at 0.01 µM (NCI-H23): 92% | GI50 (SR; read-out: GI50): 2.01 µM | CC50 (SR; [9]): > 100 µM | TGI (SR; read-out: TGI): 51 µM | GI50 (SR; read-out: pGI50 (converted)): 2 µM | CC50 (SR; [10]): > 100 µM | TGI (SR; read-out: pTGI (converted)): 5.13 µM | growth at 0.01 µM (K562): 101% | IC50 (U-251): 1.72 µM | GI50 (U-251; read-out: GI50): 1.72 µM | CC50 (U-251; [9]): 77.5 µM | TGI (U-251; read-out: TGI): 30 µM | GI50 (U-251; read-out: pGI50 (converted)): 1.74 µM | CC50 (U-251; [10]): 7.76 µM | TGI (U-251; read-out: pTGI (converted)): 3.63 µM | growth at 0.1 µM (SW-620): 98% | growth at 0.1 µM (SK-MEL-2): 94% | growth at 1 µM (DU-145): 96% | growth at 0.01 µM (A549): 101%
